From patent US6245778A, “1,6-naphthyridine anti-convulsants” (SmithKline Beecham p.l.c., priority 1997, dated 2001)
Structures can show the parent of a compound that is named as a salt.

Target: novel receptor obtainable from rat forebrain tissue
Test: Radioligand binding assay, displacement of [3H]-Compound A from rat forebrain tissue
Settings: [3H]-Compound A 20 nM, room temperature, 1 hour
Method: The affinity of test compounds to the novel receptor site is assessed as follows. Whole forebrain tissue is obtained from rats. The tissue is first homogenised in buffer (usually 50 mM Tris/HCl, pH 7.4). The homogenised tissue is washed by centrifugation and resuspension in the same buffer, then stored at -70° C. until used. […] The final concentration of [3H]-Compound A in the mixture is usually 20 nM. The mixture is incubated at room temperature for 1 hour. [3H]-Compound A bound to the tissue is then separated from unbound [3H]-Compound A by filtration through Whatman GF/B glass fibre filters. The filters are then washed rapidly with ice-cold buffer. The amount of radioactivity bound to the tissue trapped on the filters is measured by addition of liquid scintillation cocktail to the filters followed by counting in a liquid scintillation counter. In order to determine the amount of "specific" binding of [3H]-Compound A, parallel assays are carried out as above in which [3H]-Compound A and tissue are incubated together in the presence of unlabelled Compound A (usually 3 μM). The amount of binding of [3H]-Compound A remaining in the presence of this unlabelled compound is defined as "non-specific" binding. This amount is subtracted from the total amount of [3H]-Compound A binding (i.e. that present in the absence of unlabelled compound) to obtain the amount of "specific" binding of [3H]-Compound A to the novel site. The affinity of the binding of test compounds to the novel site can be estimated by incubating together [3H]-Compound A and tissue in the presence of a range of concentrations of the compound to be tested. The decrease in the level of specific [3H]Compound A binding as a result of competition by increasing concentrations of the compound under test is plotted graphically, and non-linear regression analysis of the resultant curve is used to provide an estimate of compound affinity in terms of pKi value.

Row | in vitro binding affinity, pKi | Compound
1 | > 8.0 | COc1ccc(C(=O)Nc2cnc3c(c2)CN(C)CC3)cc1Br.Cl [Example 1, N-(6-Methyl-5,6,7,8-tetrahydro[1,6]naphthyridin-3-yl)-3-bromo-4-methoxybenzamide, monohydrochloride]
2 | > 8.0 | COc1cc(C(C)(C)C)ccc1C(=O)Nc1cnc2c(c1)CN(C)CC2.Cl [Example 3, N-(6-Methyl-5,6,7,8-tetrahydro[1,6]naphthyridin-3-yl)-2-methoxy-4-t-butylbenzamide, monohydrochloride]
3 | > 8.0 | CN1CCc2ncc(NC(=O)c3ccc(C(C)(C)C)cc3)cc2C1 [Example 10, N-(6-Methyl-5,6,7,8-tetrahydrol[1,6]naphthyridin-3-yl)-4-t-butylbenzamide, monihydrochloride]
4 | > 8.0 | CCOc1ccc(C(=O)Nc2cnc3c(c2)CN(C)CC3)cc1Br [Example 11, N-(6-Methyl-5,6,7 ,8-tetrahydro[1,6]naphthyridin-3-yl)-3-bromo-4-ethoxybenzamide, monohydrochloride]
5 | > 8.0 | CC(C)Oc1ccc(C(=O)Nc2cnc3c(c2)CN(C)CC3)cc1Br.Cl [Example 12, N-(6-Methyl-5,6,7,8-tetrahydro[1,6]naphthyridin-3-yl)-3-bromo-4-iso-propyloxybenzamide, monohydrochloride]
6 | > 8.0 | CCOc1ccc(C(=O)Nc2cnc3c(c2)CN(C)CC3)cc1[N+](=O)[O-].Cl [Example 20, N-(6-Methyl-5,6,7,8-tetrahydro[1,6]naphthyridin-3-yl)-4-ethoxy-3-nitrobenzamide hydrochloride]
7 | > 8.0 | COc1ccc(C(=O)Nc2cnc3c(c2)CN(C)CC3)cc1I.Cl [Example 28, N-(6-Methyl-5,6,7,8-tetrahydro[1,6]naphthyridin-3-yl)-3-iodo-4-methoxybenzamide hydrochloride]
8 | > 8.0 | CCCOc1ccc(C(=O)Nc2cnc3c(c2)CN(C)CC3)cc1C#N [Example 30, N-(6-Methyl-5,6,7,8-tetrahydro[1,61naphthyridin-3yl)-3-cyano-4-n-propyloxybenzamide, hydrochloride]
9 | > 8.0 | CC(C)Oc1ccc(C(=O)Nc2cnc3c(c2)CN(C)CC3)cc1Cl.Cl [Example 33, N-(6-Methyl-5,6,7,8-tetrahydro[1,6]naphthyridin-3-yl)-3-chloro-4-iso-propyloxybenzamide, hydrochloride]
10 | > 8.0 | CC(C)Oc1ccc(C(=O)Nc2cnc3c(c2)CN(C)CC3)cc1C(F)(F)F.Cl [Example 36, N-(6-Methyl-5,6,7,8-tetrahydro[1,6]naphthyridin-3-yl)-4-iso-propyloxy-3-trifluoromethylbenzamide, hydrochloride]

Test system: electrically-induced seizures (tonic seizure threshold, CC50)
Test: Maximal electroshock seizure (MEST) threshold test
Type: in vivo
Settings: mice, 10 mg/kg p.o., suspension in methyl cellulose, one hour post dosing

Row | Compound | increase in seizure threshold (CC50) compared to control
11 | COc1ccc(C(=O)Nc2cnc3c(c2)CN(C)CC3)cc1Br.Cl [Example 1, N-(6-Methyl-5,6,7,8-tetrahydro[1,6]naphthyridin-3-yl)-3-bromo-4-methoxybenzamide, monohydrochloride] | 177%
12 | CN1CCc2ncc(NC(=O)c3ccccc3)cc2C1 [Example 2, N-(6-Methyl-5,6,7,8-tetrahydro[1,6]naphthyridin-3-yl)-benzamide] | 97%
13 | CCOc1ccc(C(=O)Nc2cnc3c(c2)CN(C)CC3)cc1 [Example 5, N-(6-Methyl-5,6,7,8-tetra hydro[1,6]naphthyridin-3-yl)-4-ethoxybenzamide, monohydrochloride] | 106%
